Measurements taken from paper PMC9979339 (ACS Omega, 2023).
Entries after “also recorded” stand apart in the source; their conditions may differ.

Assays:
[1] = molecular target: equine butyrylcholinesterase (Equus caballus, UniProt P81908); assay: BuChE inhibition, Ellman's colorimetric method; type: biochemical; conditions: for IC50: IC50 BuChE inhibition, in vitro; for inhibition at 31.25 µM / inhibition at 62.5 µM / inhibition at 125 µM / inhibition at 250 µM / inhibition at 500 µM / inhibition at 1000 µM: read-out: % BuChE inhibition mean ± SEM
equine butyrylcholinesterase, sequence (P81908 whole entry): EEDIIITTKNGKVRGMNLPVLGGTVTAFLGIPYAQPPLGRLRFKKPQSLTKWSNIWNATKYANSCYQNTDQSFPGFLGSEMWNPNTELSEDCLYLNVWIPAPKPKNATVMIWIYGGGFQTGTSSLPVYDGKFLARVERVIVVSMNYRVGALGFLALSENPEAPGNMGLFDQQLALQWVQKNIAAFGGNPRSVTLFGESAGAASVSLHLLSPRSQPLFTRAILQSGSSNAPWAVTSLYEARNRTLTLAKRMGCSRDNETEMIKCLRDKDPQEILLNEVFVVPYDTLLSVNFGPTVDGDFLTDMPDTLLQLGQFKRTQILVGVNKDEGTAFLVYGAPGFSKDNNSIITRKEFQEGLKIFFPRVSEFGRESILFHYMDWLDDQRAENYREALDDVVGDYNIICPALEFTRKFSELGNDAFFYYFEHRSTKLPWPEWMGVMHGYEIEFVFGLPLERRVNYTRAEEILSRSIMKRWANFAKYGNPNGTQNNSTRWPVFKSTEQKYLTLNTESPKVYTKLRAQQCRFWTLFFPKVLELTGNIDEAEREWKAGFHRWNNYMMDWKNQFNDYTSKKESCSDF

[2] = DPPH free radical scavenging assay; type: biochemical; conditions: for % DPPH scavenging mean ± SEM: n = 3; for IC50: read-out: IC50 DPPH scavenging
[3] = molecular target: electric eel acetylcholinesterase (type-VI-S) (Electrophorus electricus, UniProt O42275); assay: AChE inhibition, Ellman's colorimetric method; type: biochemical; conditions: for IC50: IC50 AChE inhibition, in vitro; for inhibition at 31.25 µM: read-out: % AChE inhibition mean ± SEM, 31.25 μM, n = 3; for inhibition at 62.5 µM: read-out: % AChE inhibition mean ± SEM, 62.5 μM, n = 3; for inhibition at 125 µM: read-out: % AChE inhibition mean ± SEM, 125 μM, n = 3; for inhibition at 250 µM: read-out: % AChE inhibition mean ± SEM, 250 μM, n = 3; for inhibition at 500 µM: read-out: % AChE inhibition mean ± SEM, 500 μM, n = 3; for inhibition at 1000 µM: read-out: % AChE inhibition mean ± SEM, 1000 μM, n = 3
electric eel acetylcholinesterase (type-VI-S), sequence (O42275 24-633): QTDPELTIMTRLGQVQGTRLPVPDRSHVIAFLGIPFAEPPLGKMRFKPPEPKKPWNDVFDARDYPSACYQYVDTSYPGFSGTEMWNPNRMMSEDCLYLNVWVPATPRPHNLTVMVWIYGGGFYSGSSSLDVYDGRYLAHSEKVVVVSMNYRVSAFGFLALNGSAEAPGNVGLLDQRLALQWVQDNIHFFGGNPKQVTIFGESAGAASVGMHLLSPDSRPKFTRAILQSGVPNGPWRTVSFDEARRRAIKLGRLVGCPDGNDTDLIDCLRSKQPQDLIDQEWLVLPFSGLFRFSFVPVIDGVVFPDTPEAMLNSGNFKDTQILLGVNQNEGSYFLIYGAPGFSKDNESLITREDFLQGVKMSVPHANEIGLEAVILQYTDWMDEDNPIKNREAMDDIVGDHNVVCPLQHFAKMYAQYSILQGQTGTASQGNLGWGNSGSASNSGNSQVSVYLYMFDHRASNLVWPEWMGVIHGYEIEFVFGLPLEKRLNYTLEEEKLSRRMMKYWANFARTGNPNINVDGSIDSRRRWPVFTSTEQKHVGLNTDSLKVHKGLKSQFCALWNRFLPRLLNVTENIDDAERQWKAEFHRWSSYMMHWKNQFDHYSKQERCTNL

[4] = system: scopolamine-induced memory impairment in mice; assay: Novel object recognition test; type: in vivo
ABTS scavenging assay = type: biochemical; conditions: for % ABTS scavenging mean ± SEM: n = 3; for IC50: read-out: IC50 ABTS scavenging
[5] = system: scopolamine-induced memory impairment in mice; assay: Y-maze spontaneous alternation, scopolamine-induced amnesia; type: in vivo
[6] = 30 mg/kg plus scopolamine 1 mg/kg
[7] = 10 and 30 mg/kg plus scopolamine 1 mg/kg
[8] = 1, 10 and 30 mg/kg plus scopolamine 1 mg/kg

| Structure (SMILES) | IC50 [1] [µM] | inhibition at 31.25 µM [1] [%] | inhibition at 62.5 µM [1] [%] | inhibition at 125 µM [1] [%] | inhibition at 250 µM [1] [%] | inhibition at 500 µM [1] [%] | inhibition at 1000 µM [1] [%] | % DPPH scavenging mean ± SEM ([2]; 31.25 μM) [%] | % DPPH scavenging mean ± SEM ([2]; 125 μM) [%] | % DPPH scavenging mean ± SEM ([2]; 250 μM) [%] | % DPPH scavenging mean ± SEM ([2]; 500 μM) [%] | % DPPH scavenging mean ± SEM ([2]; 1000 μM) [%] | IC50 [2] [µM] | % ABTS scavenging mean ± SEM (ABTS scavenging assay; 31.25 μM) [%] | % ABTS scavenging mean ± SEM (ABTS scavenging assay; 62.5 μM) [%] | % ABTS scavenging mean ± SEM (ABTS scavenging assay; 125 μM) [%] | % ABTS scavenging mean ± SEM (ABTS scavenging assay; 250 μM) [%] | % ABTS scavenging mean ± SEM (ABTS scavenging assay; 500 μM) [%] | % ABTS scavenging mean ± SEM (ABTS scavenging assay; 1000 μM) [%] | IC50 (ABTS scavenging assay) [µM] | also measured |
| --- | --- | --- | --- | --- | --- | --- | --- | --- | --- | --- | --- | --- | --- | --- | --- | --- | --- | --- | --- | --- | --- |
| Cc1ccc(N2C(=O)c3ccccc3C2=O)c(C)c1 [compound 3, 2-(2,4-dimethylphenyl)isoindoline-1,3-dione] | 11 | 59.49 ± 0.11 | 63.41 ± 0.14 | 69.37 ± 0.02 | 75.65 ± 0.03 | 82.4 ± 0.06 | 87.29 ± 0.03 | 25.21 ± 0.15 | 40.16 ± 0.15 | 55.85 ± 0.18 | 77.65 ± 0.31 | 80.87 ± 0.25 | 150 | 18.47 ± 0.83 | 35.22 ± 0.50 | 46.11 ± 1.21 | 54.72 ± 0.80 | 68.76 ± 0.72 | 73.57 ± 0.41 | 220 | % AChE inhibition mean ± SEM ([3]; 1000 μM, n = 3): 95.24 ± 0.12%; IC50 [3]: 18 µM; inhibition at 31.25 µM [3]: 65.2 ± 0.75%; inhibition at 62.5 µM [3]: 52.5 ± 0.92%; inhibition at 125 µM [3]: 77.32 ± 0.21%; inhibition at 250 µM [3]: 84.18 ± 0.1%; inhibition at 500 µM [3]: 91.47 ± 0.26%; inhibition at 1000 µM [3]: 95.7 ± 0.12%; NORT short-term memory: % discrimination index vs scopolamine alone [4, 6]: significantly higher; NORT long-term memory: % discrimination index [4, 7]: significantly higher |
| O=C1O[C@H]([C@@H](O)CO)C(O)=C1O [ascorbic acid, reference compound] | – | – | – | – | – | – | – | 29.20 ± 1.03 | 52.56 ± 0.69 | 65.19 ± 0.29 | 74.44 ± 0.48 | 85.08 ± 0.32 | 61 | 35.27 ± 0.67 | 44.58 ± 1.11 | 51.89 ± 0.59 | 63.11 ± 1.22 | 73.22 ± 0.21 | 82.14 ± 0.19 | 125 | % DPPH scavenging mean ± SEM ([2]; 62.5 μM): 47.65 ± 0.2a % |
| COc1cc2c(cc1OC)C(=O)C(CC1CCN(Cc3ccccc3)CC1)C2 (stereo not shown) [donepezil, reference compound] | – | 69.31 ± 0.06 | 74.42 ± 0.06 | 78.39 ± 0.06 | 82.49 ± 0.08 | 86.42 ± 0.11 | 91.29 ± 0.06 | – | – | – | – | – | – | – | – | – | – | – | – | – | Y-maze spontaneous alteration (% alteration) ([5]; donepezil 2 mg/kg plus scopolamine, n = 8): 83.83 ± 2.64; NORT short-term memory: exploration of novel vs familiar object in test phase ([4]; donepezil 2 mg/kg plus scopolamine 1 mg/kg): statistically not significant |
| O=C1c2ccccc2C(=O)N1c1ccc(Br)cc1 [compound 2, 2-(4-bromophenyl)isoindoline-1,3-dione] | 50 | 45.45 ± 0.22 | 51.34 ± 0.03 | 56.28 ± 0.03 | 64.36 ± 0.03 | 71.25 ± 0.12 | 78.2 ± 0.07 | 15.21 ± 0.19 | 40.16 ± 0.14 | 47.85 ± 0.17 | 56.65 ± 0.30 | 69.87 ± 0.23 | 340 | 10.47 ± 0.25 | 22.12 ± 0.32 | 34.11 ± 1.21 | 41.72 ± 0.81 | 57.76 ± 0.75 | 62.57 ± 0.50 | 350 | IC50 [3]: 140 µM; inhibition at 31.25 µM [3]: 38.36 ± 0.22%; inhibition at 62.5 µM [3]: 41.35 ± 0.13%; inhibition at 125 µM [3]: 47.14 ± 0.09%; inhibition at 250 µM [3]: 54.33 ± 0.22%; inhibition at 500 µM [3]: 61.1 ± 1.95%; inhibition at 1000 µM [3]: 66.7 ± 5.14%; NORT short-term memory: exploration of novel vs familiar object in test phase [4, 8]: did not exert a significant effect |
| O=C1c2ccccc2C(=O)N1c1ccc(C(F)(F)F)cc1 [compound 1, 2-(4-(trifluoromethyl)phenyl)isoindoline-1,3-dione] | 80 | 41.39 ± 0.07 | 47.29 ± 0.12 | 54.29 ± 0.19 | 61.76 ± 0.49 | 67.4 ± 0.89 | 75.4 ± 1.39 | 30.21 ± 0.17 | 52.16 ± 0.15 | 67.85 ± 0.18 | 76.65 ± 0.30 | 85.87 ± 0.23 | 105 | 11.47 ± 0.54 | 28.21 ± 0.32 | 42.10 ± 1.11 | 49.72 ± 0.72 | 66.65 ± 0.61 | 70.55 ± 0.32 | 205 | Y-maze spontaneous alternation vs scopolamine group ([5]; 10 and 30 mg/kg plus scopolamine): significant increase; IC50 [3]: 10 µM; inhibition at 31.25 µM [3]: 55.68 ± 0.52%; inhibition at 62.5 µM [3]: 61.77 ± 0.49%; inhibition at 125 µM [3]: 77.4 ± 0.9%; inhibition at 250 µM [3]: 84.4 ± 1.39%; inhibition at 500 µM [3]: 81.44 ± 0.29%; inhibition at 1000 µM [3]: 98.51 ± 0.65%; NORT long-term memory: % discrimination index [4, 6]: significantly higher; NORT short-term memory: exploration of novel vs familiar object in test phase [4, 8]: statistically not significant; NORT long-term memory: % discrimination index [4, 7]: significantly higher; NORT short-term memory: % discrimination index vs scopolamine alone [4, 7]: significantly greater; also recorded: significantly higher |
